From the NIST ThermoML archive (doi:10.1016/j.jct.2006.03.013)
Numbers after ± are expanded uncertainties.

Details: 182.33 K; Liquid; Closed cell (Static) method

Row | vapor or sublimation pressure [kPa] | SMILES
1 | 0.419 ± 0.011 | CCCC [butane]
2 | 88.97 ± 0.39 | CC [ethane]
3 | 6.02 ± 0.044 | CCC [propane]
